Results: US11590139B2, “Substituted aminopurine compounds, compositions thereof, and methods of treatment therewith” (Signal Pharmaceuticals, LLC, priority 2014, dated 2023)

The molecules below were run on Lox-IMVI melanoma cell line (assay: Lox-IMVI anti-proliferative assay (growth inhibition, Cell Titer-Glo)). Details: Homo sapiens; IC50 activity level in the cell-based Lox-IMVI anti-proliferative assay; read-out: Activity.
Assay type: cell-based, human
In short: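 Lox-IMVI cells in RPMI+10% FBS exposed 72 h at 37 °C to 10-point, 3-fold dilutions (0.5 nM–10 μM; 0.2% DMSO final), in duplicate. Viability by Cell Titer-Glo luminescence, with a t0 cell-number reading; data as % of DMSO control; IC50 from a four-parameter logistic fit.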

Question: For `NC(=O)[C@H]1CC[C@@H](n2c(Nc3c(F)ccc(Cl)c3F)nc3cnc(N[C@@H]4CCC[C@H]4O)nc32)CC1` [Example 259, (1S,4s)-4-(8-(3-chloro-2,6-difluorophenylamino)-2-((1R,2R)-2-hydroxycyclopentylamino)-9H-purin-9-yl)cyclohexanecarboxamide], which IC50 is on record?
Answer: > 1000 nM

Question: `CC(=O)N1CCC(Nc2ncc3nc(Nc4c(Cl)cc(Cl)cc4Cl)n([C@H]4CC[C@@H](C(N)=O)CC4)c3n2)CC1` [Example 197, (1s,4s)-4-(2-(1-acetylpiperidin-4-ylamino)-8-(2,4,6-trichlorophenylamino)-9H-purin-9-yl)cyclohexanecarboxamide] was tested. Which IC50 did it give?
Answer: > 1000 nM

Question: `NC(=O)[C@H]1CC[C@@H](n2c(Nc3ccc(Cl)c(F)c3Cl)nc3cnc(NC4CCOCC4)nc32)CC1` [Example 82, (1s,4s)-4-(8-(2,4-dichloro-3-fluorophenylamino)-2-(tetrahydro-2H-pyran-4-ylamino)-9H-purin-9-yl)cyclohexanecarboxamide] was tested. Which IC50 did it give?
Answer: > 1000 nM

Question: For `NC(=O)[C@H]1CC[C@@H](n2c(Nc3ccc(Cl)c(F)c3F)nc3cnc(NC4CC5(COC5)C4)nc32)CC1` [Example 194, (1s,4s)-4-(2-(2-oxaspiro[3.3]heptan-6-ylamino)-8-(4-chloro-2,3-difluorophenylamino)-9H-purin-9-yl)cyclohexanecarboxamide], which IC50 is on record?
Answer: > 1000 nM

Question: With `CC[C@H](C)Nc1ncc2nc(Nc3c(F)cccc3Cl)n([C@H]3CC[C@@H](C(N)=O)CC3)c2n1` [Example 337, (1R,4s)-4-(2-(sec-butylamino)-8-(2-chloro-6-fluorophenylamino)-9H-purin-9-yl)cyclohexanecarboxamide] as the molecule, how does the IC50 read?
Answer: > 1000 nM

Question: For `NC(=O)[C@H]1CC[C@@H](n2c(Nc3c(Cl)cc(F)cc3Cl)nc3cnc(N[C@@H]4CC[C@@H](O)C4)nc32)CC1` [Example 214, (1S,4s)-4-(8-(2,6-dichloro-4-fluorophenylamino)-2-((1R,3R)-3-hydroxycyclopentylamino)-9H-purin-9-yl)cyclohexanecarboxamide], which IC50 is on record?
Answer: > 1000 nM

Question: For `CC1(C)CC[C@@H](Nc2ncc3nc(Nc4c(Cl)cc(Cl)cc4Cl)n([C@H]4CC[C@@H](C(N)=O)CC4)c3n2)C[C@H]1O` [Example 387, (1S,4s)-4-(2-((1R,3R)-3-hydroxy-4,4-dimethylcyclohexylamino)-8-(2,4,6-tnchlorophenylarnino)-9H-purin-9-yl)cyclohexanecarboxamide], which IC50 is on record?
Answer: > 1000 nM

Question: How did the IC50 turn out when `NC(=O)[C@H]1CC[C@@H](n2c(Nc3c(F)cccc3Cl)nc3cnc(N[C@@H]4CCC[C@H](O)C4)nc32)CC1` [Example 350, (1S,4s)-4-(8-(2-chloro-6-fluorophenylamino)-2-((1R,3S)-3-hydroxycyclohexylamino)-9H-purin-9-yl)cyclohexanecarboxamide] was run?
Answer: 500 to 1000 nM

Question: `NC(=O)[C@H]1CC[C@@H](n2c(Nc3c(Cl)cc(F)cc3Cl)nc3cnc(N[C@@H]4CCCOC4)nc32)CC1` [Example 189, (1S,4s)-4-(8-(2,6-dichloro-4-fluorophenylamino)-2-((R)-tetrahydro-2H-pyran-3-ylamino)-9H-purin-9-yl)cyclohexanecarboxamide] was tested. Which IC50 did it give?
Answer: > 1000 nM

Question: How did the IC50 turn out when `NC(=O)[C@H]1CC[C@@H](n2c(Nc3c(Cl)cc(F)cc3Cl)nc3cnc(NC4CCC(F)(F)CC4)nc32)CC1` [Example 201, (1s,4s)-4-(8-(2,6-dichloro-4-fluorophenylamino)-2-(4,4-difluorocyclohexylamino)-9H-purin-9-yl)cyclohexanecarboxamide] was run?
Answer: 250 to 500 nM

Same assay, conditions: Homo sapiens; Lox-IMVI anti-proliferative assay, IC50 activity level; read-out: Activity

Question: With `N#Cc1cc(Cl)c(Nc2nc3cnc(N[C@H]4CCCC[C@H]4O)nc3n2[C@H]2CC[C@@H](C(N)=O)CC2)c(Cl)c1` [Example 519, (1R,4s)-4-(8-(2,6-dichloro-4-cyanophenylamino)-2-((1S,2R)-2-hydroxycyclohexylamino)-9H-purin-9-yl)cyclohexanecarboxamide] as the molecule, how does the IC50 read?
Answer: > 1000 nM

Question: Which IC50 does the source give for `C[C@]1(C(N)=O)CC[C@H](n2c(Nc3c(Cl)cc(C(F)(F)F)cc3Cl)nc3cnc(NC4CCCC4)nc32)CC1` [Example 488, (1r,4r)-4-(2-(cyclopentylamino)-8-(2,6-dichloro-4-(trifluoromethyl)phenylamino)-9H-purin-9-yl)-1-methylcyclohexanecarboxamide] here?
Answer: > 1000 nM

Question: `NC(=O)[C@H]1CC[C@@H](n2c(Nc3c(F)cc(Cl)cc3F)nc3cnc(NC4CCCOCC4)nc32)CC1` (stereo partly shown) [Example 540, (1s,4s)-4-(8-(4-chloro-2,6-difluorophenylamino)-2-(oxepan-4-ylamino)-9H-purin-9-yl)cyclohexanecarboxamide] was tested. Which IC50 did it give?
Answer: 250 to 500 nM

Question: How did the IC50 turn out when `NC(=O)[C@H]1CC[C@@H](n2c(Nc3c(Cl)cc(F)cc3Cl)nc3cnc(N[C@H]4CCCC[C@H]4O)nc32)CC1` [Example 516, (1R,4s)-4-(8-(2,6-dichloro-4-fluorophenylamino)-2-((1S,2R)-2-hydroxycyclohexylamino)-9H-purin-9-yl)cyclohexanecarboxamide] was run?
Answer: > 1000 nM

Question: How did the IC50 turn out when `NC(=O)[C@H]1CC[C@@H](n2c(Nc3c(Cl)cc(F)cc3Cl)nc3cnc(N[C@@H]4CCC(F)(F)C4)nc32)CC1` [Example 586, (1S,4s)-4-(8-(2,6-dichloro-4-fluorophenylamino)-2-((R)-3,3-difluorocyclopentylamino)-9H-purin-9-yl)cyclohexanecarboxamide] was run?
Answer: < 250 nM

Question: `COC(=O)N1CCC[C@@H](Nc2ncc3nc(Nc4ccc(Cl)c(F)c4F)n([C@H]4CC[C@@H](C(N)=O)CC4)c3n2)C1` [Example 411, (R)-methyl 3-(9-((1s,4S)-4-carbamoylcyclohexyl)-8-(4-chloro-2,3 difluorophenylamino)-9H-purin-2-ylamino)piperidine-1-carboxylate] was tested. Which IC50 did it give?
Answer: > 1000 nM

Same assay, conditions: Homo sapiens; Lox-IMVI melanoma cell line, anti-proliferative assay; read-out: Activity (IC50 activity level)

Question: How did the IC50 turn out when `NC(=O)[C@H]1CC[C@@H](n2c(Nc3c(F)cc(Cl)cc3Cl)nc3cnc(NC4CCC(c5ncno5)CC4)nc32)CC1` (stereo partly shown) [Example 676, (1s,4s)-4-(2-(4-(1,2,4-oxadiazol-5-yl)cyclohexylamino)-8-(2,4-dichloro-6-fluorophenylamino)-9H-purin-9-yl)cyclohexanecarboxamide] was run?
Answer: > 1000 nM

Question: Which IC50 does the source give for `CC(C)OC(=O)N1CCC[C@@H](Nc2ncc3nc(Nc4c(Cl)cc(C#N)cc4Cl)n([C@H]4CC[C@@H](C(N)=O)CC4)c3n2)C1` [Example 769, (R)-isopropyl 3-(9-((1s,4S)-4-carbamoylcyclohexyl)-8-(2,6-dichloro-4-cyanophenylamino)-9H-purin-2-ylamino)piperidine-1-carboxylate] here?
Answer: 500 to 1000 nM

Question: Which IC50 does the source give for `N#Cc1cc(F)c(Nc2nc3cnc(N[C@@H]4CCCN(Cc5ccccc5)C4)nc3n2[C@H]2CC[C@@H](C(N)=O)CC2)c(Cl)c1` [Example 777, (1S,4s)-4-(2-((R)-1-benzylpiperidin-3-ylamino)-8-(2-chloro-4-cyano-6-fluorophenylamino)-9H-purin-9-yl)cyclohexanecarboxamide] here?
Answer: > 1000 nM

Question: For `CNC(=O)N1CCC[C@@H](Nc2ncc3nc(Nc4c(Cl)cc(Cl)cc4Cl)n([C@H]4CC[C@@H](C(N)=O)CC4)c3n2)C1` [Example 705, (R)-3-(9-((1s,4S)-4-carbamoylcyclohexyl)-8-(2,4,6-trichlorophenylamino)-9H-purin-2-ylamino)-N-methylpiperidine-1-carboxamide], which IC50 is on record?
Answer: > 1000 nM

Question: For `C[C@]1(C(N)=O)CC[C@@H](n2c(Nc3c(F)cc(Cl)cc3F)nc3cnc(N[C@H]4CCC[C@@H](O)C4)nc32)CC1` [Example 632, (1R,4s)-4-(8-(4-chloro-2,6-difluorophenylamino)-2-((1S,3R)-3-hydroxycyclohexylamino)-9H-purin-9-yl)-1-methylcyclohexanecarboxamide], which IC50 is on record?
Answer: 500 to 1000 nM

Question: `NC(=O)[C@H]1CC[C@@H](n2c(Nc3c(F)cc(Cl)cc3Cl)nc3cnc(N[C@@H]4CCCN(c5ccccc5)C4)nc32)CC1` [Example 748, (1S,4s)-4-(8-(2,4-dichloro-6-fluorophenylamino)-2-((R)-1-phenylpiperidin-3-ylamino)-9H-purin-9-yl)cyclohexanecarboxamide] was tested. Which IC50 did it give?
Answer: > 1000 nM

Question: With `CC(C)N1CCC[C@@H](Nc2ncc3nc(Nc4c(Cl)cc(C#N)cc4Cl)n([C@H]4CC[C@@H](C(N)=O)CC4)c3n2)C1` [Example 739, (1S,4s)-4-(8-(2,6-dichloro-4-cyanophenylamino)-2-((R)-1-isopropylpiperidin-3-ylamino)-9H-purin-9-yl)cyclohexanecarboxamide] as the molecule, how does the IC50 read?
Answer: > 1000 nM

Question: With `C[C@]1(C(N)=O)CC[C@@H](n2c(Nc3c(Cl)cc(Cl)cc3Cl)nc3cnc(N[C@H]4CCOC[C@H]4F)nc32)CC1` [Example 719, (1R,4s)-4-(2-((3S,4S)-3-fluorotetrahydro-2H-pyran-4-ylamino)-8-(2,4,6-trichlorophenylamino)-9H-purin-9-yl)-1-methylcyclohexanecarboxamide] as the molecule, how does the IC50 read?
Answer: < 250 nM

Question: Which IC50 does the source give for `C[C@]1(C(N)=O)CC[C@@H](n2c(Nc3c(Cl)cc(C#N)cc3Cl)nc3cnc(N[C@H]4CC[C@H](O)C4)nc32)CC1` [Example 650, (1R,4s)-4-(8-(2,6-dichloro-4-cyanophenylamino)-2-((1S,3S)-3-hydroxycyclopentylamino)-9H-purin-9-yl)-1-methylcyclohexanecarboxamide] here?
Answer: 250 to 500 nM

Question: For `C[C@]1(C(N)=O)CC[C@@H](n2c(Nc3c(F)cc(Cl)cc3F)nc3cnc(N[C@@H]4CCC[C@@H](O)C4)nc32)CC1` [Example 622, (1S,4s)-4-(8-(4-chloro-2,6-difluorophenylamino)-2-((1R,3R)-3-hydroxycyclohexylamino)-9H-purin-9-yl)-1-methylcyclohexanecarboxamide], which IC50 is on record?
Answer: 500 to 1000 nM

Question: `C[C@]1(C(N)=O)CC[C@@H](n2c(Nc3c(F)cc(F)cc3Cl)nc3cnc(N[C@H]4CCC[C@H](O)C4)nc32)CC1` [Example 610, (1R,4s)-4-(8-(2-chloro-4,6-difluorophenylamino)-2-((1S,3S)-3-hydroxycyclohexylamino)-9H-purin-9-yl)-1-methylcyclohexanecarboxamide] was tested. Which IC50 did it give?
Answer: 250 to 500 nM

Question: For `C[C@]1(C(N)=O)CC[C@@H](n2c(Nc3c(Cl)cc(F)cc3Cl)nc3cnc(N[C@H]4CC[C@H](O)C4)nc32)CC1` [Example 647, (1R,4s)-4-(8-(2,6-dichloro-4-fluorophenylamino)-2-((1S,3S)-3-hydroxycyclopentylamino)-9H-purin-9-yl)-1-methylcyclohexanecarboxamide], which IC50 is on record?
Answer: 500 to 1000 nM
